Results reported in PubChem BioAssay (NCI).
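At the GI50, growth is halved. The concentration for full growth arrest is given as TGI.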

What was measured:
Experiment in all cases: DTP human tumour cell line panel, 384-well format
786-0 renal = system: 786-0 renal
A498 renal = system: A498 renal
A549 NSCLC = system: A549 NSCLC
ACHN renal = system: ACHN renal
BT-549 breast = system: BT-549 breast
CAKI-1 renal = system: CAKI-1 renal
COLO 205 colon = system: COLO 205 colon
DU-145 prostate = system: DU-145 prostate
EKVX NSCLC = system: EKVX NSCLC
HCC-2998 colon = system: HCC-2998 colon
HCT-116 colon = system: HCT-116 colon
HCT-15 colon = system: HCT-15 colon
HL-60(TB) leukemia = system: HL-60(TB) leukemia
HOP-62 NSCLC = system: HOP-62 NSCLC
HOP-92 NSCLC = system: HOP-92 NSCLC
HS 578T breast = system: HS 578T breast
HT29 colon = system: HT29 colon
IGROV1 ovarian = system: IGROV1 ovarian
K-562 leukemia = system: K-562 leukemia
KM12 colon = system: KM12 colon
LOX IMVI melanoma = system: LOX IMVI melanoma
M14 melanoma = system: M14 melanoma
MALME-3M melanoma = system: MALME-3M melanoma
MCF7 breast = system: MCF7 breast
MDA-MB-231 breast = system: MDA-MB-231 breast
MDA-MB-435 melanoma = system: MDA-MB-435 melanoma
MDA-MB-468 breast = system: MDA-MB-468 breast
MOLT-4 leukemia = system: MOLT-4 leukemia
NCI-H226 lung = system: NCI-H226 lung
NCI-H23 lung = system: NCI-H23 lung
NCI-H322M lung = system: NCI-H322M lung
NCI-H460 NSCLC = system: NCI-H460 NSCLC
NCI-H522 lung = system: NCI-H522 lung
NCI/ADR-RES ovarian = system: NCI/ADR-RES ovarian
OVCAR-3 ovarian = system: OVCAR-3 ovarian
OVCAR-4 ovarian = system: OVCAR-4 ovarian
OVCAR-5 ovarian = system: OVCAR-5 ovarian
OVCAR-8 ovarian = system: OVCAR-8 ovarian
PC-3 prostate = system: PC-3 prostate
RPMI-8226 leukemia = system: RPMI-8226 leukemia
RXF 393 renal = system: RXF 393 renal
SF-268 CNS = system: SF-268 CNS
SF-295 CNS = system: SF-295 CNS
SF-539 CNS = system: SF-539 CNS
SK-MEL-2 melanoma = system: SK-MEL-2 melanoma
SK-MEL-28 melanoma = system: SK-MEL-28 melanoma
SK-MEL-5 melanoma = system: SK-MEL-5 melanoma
SK-OV-3 ovarian = system: SK-OV-3 ovarian
SN12C renal = system: SN12C renal
SNB-19 CNS = system: SNB-19 CNS
SNB-75 CNS = system: SNB-75 CNS
SR leukemia = system: SR leukemia
SW-620 colon = system: SW-620 colon
T-47D breast = system: T-47D breast
TK-10 renal = system: TK-10 renal
U251 glioblastoma = system: U251 glioblastoma
UACC-257 melanoma = system: UACC-257 melanoma
UACC-62 melanoma = system: UACC-62 melanoma
UO-31 renal = system: UO-31 renal

Compound: CC(C)C[C@H](NC(=O)CNC(=O)c1cc(Cl)ccc1Cl)B1OC(=O)CC(CC(=O)O)(C(=O)O)O1 (stereo partly drawn)
- GI50 ([…]-0 renal): 24 nM
- TGI (786-0 renal): 91.6 nM
- GI50 (A498 renal): < 23.7 nM
- TGI (A498 renal): 191 nM
- GI50 (A549 NSCLC): 106 nM
- TGI (A549 NSCLC): 1510 nM
- GI50 (ACHN renal): < 20.3 nM
- TGI (ACHN renal): 63.7 nM
- GI50 (BT-549 breast): 16.1 nM
- TGI (BT-549 breast): 30.8 nM
- GI50 (CAKI-1 renal): < 20.4 nM
- TGI (CAKI-1 renal): 152 nM
- GI50 (COLO 205 colon): 58 nM
- TGI (COLO 205 colon): 557 nM
- GI50 (DU-145 prostate): 44.1 nM
- TGI (DU-145 prostate): 233 nM
- GI50 (EKVX NSCLC): 97.4 nM
- TGI (EKVX NSCLC): 448 nM
- GI50 (HCC-2998 colon): 51.5 nM
- TGI (HCC-2998 colon): 101 nM
- GI50 (HCT-116 colon): < 15.9 nM
- TGI (HCT-116 colon): 34.7 nM
- GI50 (HCT-15 colon): 36.7 nM
- TGI (HCT-15 colon): 101 nM
- GI50 (HL-60(TB) leukemia): < 13.4 nM
- TGI (HL-60(TB) leukemia): 19.9 nM
- GI50 (HOP-62 NSCLC): 42.3 nM
- TGI (HOP-62 NSCLC): 164 nM
- GI50 (HOP-92 NSCLC): 30 nM
- TGI (HOP-92 NSCLC): 71.8 nM
- GI50 (HS 578T breast): 16.7 nM
- TGI (HS 578T breast): 32.7 nM
- GI50 (HT29 colon): 23.4 nM
- TGI (HT29 colon): 62.4 nM
- GI50 (IGROV1 ovarian): 70.6 nM
- TGI (IGROV1 ovarian): 178 nM
- GI50 (K-562 leukemia): 17.2 nM
- TGI (K-562 leukemia): 35 nM
- GI50 (KM12 colon): 54.7 nM
- TGI (KM12 colon): 148 nM
- GI50 (LOX IMVI melanoma): 33.9 nM
- TGI (LOX IMVI melanoma): 125 nM
- GI50 (M14 melanoma): 16.5 nM
- TGI (M14 melanoma): 32.6 nM
- GI50 (MALME-3M melanoma): < 13.7 nM
- TGI (MALME-3M melanoma): 27.5 nM
- GI50 (MCF7 breast): < 21.3 nM
- TGI (MCF7 breast): 619 nM
- GI50 (MDA-MB-231 breast): 33.3 nM
- TGI (MDA-MB-231 breast): 86.3 nM
- GI50 (MDA-MB-435 melanoma): < 14.8 nM
- TGI (MDA-MB-435 melanoma): 28.3 nM
- GI50 (MDA-MB-468 breast): < 14.4 nM
- TGI (MDA-MB-468 breast): < 20.6 nM
- GI50 (MOLT-4 leukemia): < 12.8 nM
- TGI (MOLT-4 leukemia): < 17.4 nM
- GI50 (NCI-H226 lung): < 13.5 nM
- TGI (NCI-H226 lung): 24.5 nM
- GI50 (NCI-H23 lung): 26.8 nM
- TGI (NCI-H23 lung): 75.5 nM
- GI50 (NCI-H322M lung): 351 nM
- TGI (NCI-H322M lung): 2020 nM
- GI50 (NCI-H460 NSCLC): 92.3 nM
- TGI (NCI-H460 NSCLC): 317 nM
- GI50 (NCI-H522 lung): 15.7 nM
- TGI (NCI-H522 lung): 31.1 nM
- GI50 (NCI/ADR-RES ovarian): 189 nM
- TGI (NCI/ADR-RES ovarian): 448 nM
- GI50 (OVCAR-3 ovarian): < 14.3 nM
- TGI (OVCAR-3 ovarian): 26.4 nM
- GI50 (OVCAR-4 ovarian): 53.2 nM
- TGI (OVCAR-4 ovarian): 117 nM
- GI50 (OVCAR-5 ovarian): 50.5 nM
- TGI (OVCAR-5 ovarian): 181 nM
- GI50 (OVCAR-8 ovarian): 66.8 nM
- TGI (OVCAR-8 ovarian): 158 nM
- GI50 (PC-3 prostate): 48.1 nM
- TGI (PC-3 prostate): 113 nM
- GI50 (RPMI-8226 leukemia): < 13.2 nM
- TGI (RPMI-8226 leukemia): < 17.7 nM
- GI50 (RXF 393 renal): < 14 nM
- TGI (RXF 393 renal): 27.1 nM
- GI50 (SF-268 CNS): 23.6 nM
- TGI (SF-268 CNS): 53.8 nM
- GI50 (SF-295 CNS): 30.5 nM
- TGI (SF-295 CNS): 88.4 nM
- GI50 (SF-539 CNS): 15.1 nM
- TGI (SF-539 CNS): 31.3 nM
- GI50 (SK-MEL-2 melanoma): 21.5 nM
- TGI (SK-MEL-2 melanoma): 42 nM
- GI50 (SK-MEL-28 melanoma): < 14.4 nM
- TGI (SK-MEL-28 melanoma): 25.3 nM
- GI50 (SK-MEL-5 melanoma): < 15.5 nM
- TGI (SK-MEL-5 melanoma): 28.1 nM
- GI50 (SK-OV-3 ovarian): 204 nM
- TGI (SK-OV-3 ovarian): 1550 nM
- GI50 (SN12C renal): 87.3 nM
- TGI (SN12C renal): 263 nM
- GI50 (SNB-19 CNS): 59.4 nM
- TGI (SNB-19 CNS): 272 nM
- GI50 (SNB-75 CNS): 47.4 nM
- TGI (SNB-75 CNS): 118 nM
- GI50 (SR leukemia): < 17.7 nM
- TGI (SR leukemia): < 21.6 nM
- GI50 (SW-620 colon): < 15.3 nM
- TGI (SW-620 colon): 33.2 nM
- GI50 (T-47D breast): 25.6 nM
- TGI (T-47D breast): 70.8 nM
- GI50 (TK-10 renal): < 18 nM
- TGI (TK-10 renal): 53 nM
- GI50 (U251 glioblastoma): 98.5 nM
- TGI (U251 glioblastoma): 472 nM
- GI50 (UACC-257 melanoma): 17.3 nM
- TGI (UACC-257 melanoma): 33.3 nM
- GI50 (UACC-62 melanoma): 25.6 nM
- TGI (UACC-62 melanoma): 66.1 nM
- GI50 (UO-31 renal): 18 nM
- TGI (UO-31 renal): 36.6 nM
